Measured values taken from patent US20210047290A1, “SPIRO COMPOUND AS INDOLEAMINE-2,3-DIOXYGENASE INHIBITOR” (SHANGHAI INSTITUTE OF ORGANIC CHEMISTRY, CHINESE ACADEMY OF …, priority 2018, published 2021).
pIC50: −log10 of the molar value.

Biological target: T1, IDO in Hela cells (Homo sapiens, UniProt P14902)
T1 construct: endogenous in cells; host or cells: HeLa cells stimulated with human interferon γ
Assay: Test of cellular activity (kynurenine formation in interferon γ stimulated Hela cells)
Type: cell-based
Conditions: head prints IPS cells, method: Hela cells, 48 h incubation, read at 480 nm
Description: (3) Test Method of Cellular Activity
Hela cells (80 μL) was inoculated on a 96-well plate (5×10^3 for each well) to grow overnight. After the compound was diluted the next day, 1 μL of diluent and 100 μL of culture medium which contains human interferon γ (final concentration: 50 ng/m) were added into the 96-well plate to make the final volume reach […]. After incubating for 48 h, 80 μL of supernate was transferred from each well to a new […]. 10 μL 6.1N trichloroacetic acid was added into each well for mixing and incubation at 50° C. for 30 min, and […] N formyl-kynurenin into kynurenine. The reaction mixture was centrifuged at 2,500 rpm for 10 min, 70 μL of supernatant of each well was transferred to a new 96-well plate and mixed with 100 μL of 2% (w/v) dimethylaminobenzaldehyde acetic acid solution. After placing for 5-10 min, measurement was carried out at 480 nm with the SPECTRAmax i13 reader.

T1 sequence (P14902 whole entry): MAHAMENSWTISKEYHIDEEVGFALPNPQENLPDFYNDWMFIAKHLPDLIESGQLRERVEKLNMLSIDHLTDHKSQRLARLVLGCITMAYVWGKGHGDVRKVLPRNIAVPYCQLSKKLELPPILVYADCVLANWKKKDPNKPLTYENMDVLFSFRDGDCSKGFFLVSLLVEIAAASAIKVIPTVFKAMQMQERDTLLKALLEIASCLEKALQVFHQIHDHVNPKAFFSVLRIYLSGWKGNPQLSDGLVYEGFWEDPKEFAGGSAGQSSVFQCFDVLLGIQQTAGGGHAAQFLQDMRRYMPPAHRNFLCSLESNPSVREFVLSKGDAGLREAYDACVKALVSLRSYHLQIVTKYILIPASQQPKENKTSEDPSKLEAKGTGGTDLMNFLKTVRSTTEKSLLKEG

pIC50	Structure (SMILES)
< 8.52	O=C(Nc1ccc(Cl)cc1)C1CCC12CCC(c1ccnc3ccc(F)cc13)CC2 (racemic) [Example 10B, (±) N-(4-chlorophenyl)-7-(6-fluoroquinolin-4-yl)spiro[3.5]nonane-1-carboxamide]
9.16	O=C(Nc1ccc(F)cc1)C1CC2(CCC(c3ccnc4ccc(F)cc34)CC2)C1 (single isomer, unassigned) [Example 25, N-(4-fluorophenyl)-7-(6-fluoroquinolin-4-yl)spiro[3.5]nonane-2-carboxamide]
9.10	O=C(Nc1ccc(Br)cc1)C1CC2(CCC(c3ccnc4ccc(F)cc34)CC2)C1 (single isomer, unassigned) [Example 26, N-(4-bromophenyl)-7-(6-fluoroquinoline-4-yl)spiro[3.5]nonane-2-carboxamide]
< 8.00	O=C(Nc1ccccn1)C1CC2(CCC(c3ccnc4ccc(F)cc34)CC2)C1 (single isomer, unassigned) [Example 27]
< 8.00	Cn1ccc(-c2ccc(NC(=O)C3CC4(CCC(c5ccnc6ccc(F)cc56)CC4)C3)cc2F)n1 (single isomer, unassigned) [Example 28, N-(3-fluoro-4-(1-methyl-1H-pyrazol-3-yl)phenyl)-7-(6-fluoroquinolin-4-yl)spiro[3.5]nonane-2-carboxamide]
< 8.00	O=C(Nc1ccccc1Cl)C1CC2(CCC(c3ccnc4ccc(F)cc34)CC2)C1 (single isomer, unassigned) [Example 29, N-(2-chlorophenyl)-7-(6-fluoroquinolin-4-yl)spiro[3.5]nonane-2-carboxamide]
8.60	O=C(Nc1ccc(Cl)cc1F)C1CC2(CCC(c3ccnc4ccc(F)cc34)CC2)C1 (single isomer, unassigned) [Example 30, N-(4-chloro-2-fluorophenyl)-7-(6-fluoroquinoline-4-yl)spiro[3.5]nonane-2-carboxamide]
8.71	O=C(Nc1cccc(F)c1)C1CC2(CCC(c3ccnc4ccc(F)cc34)CC2)C1 (single isomer, unassigned) [Example 31, N-(3-fluorophenyl)-7-(6-fluoroquinoline-4-yl)spiro[3.5]nonane-2-carboxamide]
< 8.00	O=C(Nc1cccc(Br)c1)C1CC2(CCC(c3ccnc4ccc(F)cc34)CC2)C1 (single isomer, unassigned) [Example 32, N-(3-bromophenyl)-7-(6-fluoroquinoline-4-yl)spiro[3.5]nonane-2-carboxamide]
< 8.00	O=C(Nc1cccnc1)C1CC2(CCC(c3ccnc4ccc(F)cc34)CC2)C1 (single isomer, unassigned) [Example 33, 7-(6-fluoroquinoline-4-yl)-N-(pyridine-3-yl)spiro[3.5]nonane-2-carboxamide]
8.87	O=C(Nc1ccc(Cl)c(F)c1)C1CC2(CCC(c3ccnc4ccc(F)cc34)CC2)C1 (single isomer, unassigned) [Example 34, N-(3-fluoro-4-chlorophenyl)-7-(6-fluoroquinoline-4-yl)spiro[3.5]nonane-2-carboxamide]
8.21	O=C(Nc1ccc(C(F)(F)F)cc1)C1CC2(CCC(c3ccnc4ccc(F)cc34)CC2)C1 (single isomer, unassigned) [Example 35, 7-(6-fluoroquinolin-4-yl)-N-(4-(trifluoromethyl)phenyl)spiro[3.5]nonane-2-carboxamide]
8.08	O=C(Nc1cccc(Cl)c1)C1CC2(CCC(c3ccnc4ccc(F)cc34)CC2)C1 (single isomer, unassigned) [Example 36, N-(3-chlorophenyl)-7-(6-fluoroquinoline-4-yl)spiro[3.5]nonane-2-carboxamide]
< 8.00	O=C(Nc1ccc(Br)c(F)c1)C1CC2(CCC(c3ccnc4ccc(F)cc34)CC2)C1 (single isomer, unassigned) [Example 37, N-(3-fluoro-4-bromophenyl)-7-(6-fluoroquinoline-4-yl)spiro[3.5]nonane-2-carboxamide]
